Source: patent US20050222274A1 (priority 2002, published 2005)

How the values were obtained:
[1] = tested on: release of APPs produced by α-secretase; assay: release of APPs in the culture medium of neuroblastoma cell line SH-SY5Y; format: cell-based; details: 10 μM; APPs secreted in culture medium of SH-SY5Y; controls = 100
Procedure: It is in fact known that proteolytic cleavage of Alzheimer Precursor Protein (APP) is mediated both by β- and γ-secretase, inducing an increased production of amyloid peptide Ab1-42 (which also plays a central role in the appearance of Alzheimer's disease), and […], giving raise to soluble APPs which have no pathogenic activity (Eslr W. P., Wolfe M. S., Science, 293, 1449-54, 2001).
The effect of the compounds of the invention on the release of APPs produced by α-secretase was evaluated in the culture medium of a neuroblastoma cell line (SH-SY5Y) according to the procedure described by Galbete J. L. et al. in Biochem J. 348, 307-313, 2000.

[2] = usual extraction and storage conditions; cited from earlier work

Question: With 8-chlorooctahydrohyperforin as the compound, how does the APPs % [1] read?
Answer: 855%

Question: Which APPs % [1] does the source give for `CC(C)=CCC[C@]1(C)[C@@H](CC=C(C)C)C[C@]2(CC=C(C)C)C(=O)C(Cl)(CC=C(C)C)C(=O)[C@@]1(C(=O)C(C)C)C2=O` (stereo partly shown) [Chlorohyperforin, 8-chlorohyperforin] here?
Answer: 627%

Question: What does the source list for `CC(C)=CCC[C@]1(C)[C@@H](CC=C(C)C)C[C@@]2(CC=C(C)C)C(=O)[C@]1(C(=O)C(C)C)C(=O)C(CC=C(C)C)=C2O` [Hyperforin]?
Answer: stability (in words) [2]: poorly stable; APPs % [1]: 296%
